Patent US9322034B2, “Compositions and methods for detecting and modulating cell death by a translation regulated gene expression system” (Wayne State University, priority 2007, dated 2016)

Legend:
Assay type in all cases: cell-based, human
HEK293 cells = experiment: Trypan blue staining of HEK293 cells treated with toxic agents; details: 5-6.7 micromolar, within 24 hr
[1] = tested on: HEK293 cells transformed with the CMV-EYFP, TRplp-EYFP or TRdm-EYFP expression cassettes; experiment: Cytotoxicity assay by fluorescent microscopy, EYFP fluorescent cell counts; details: 5 micromolar
Excerpt: Fluorescence of single cells, tissues or cell suspensions can be detected and quantitated by several means such as visual inspection under a microscope, automated or semiautomated fluorescence imaging, flow cytometry, fluorescence spectroscopy in a fluorometer or in a microplate reader, using an appropriate filter set. For this example, visual inspection under a microscope (Nikon TE2000-S) was used to validate TR translational regulation in stressed and dying HEK293 cells expressing the TRplp-EYFP, TRdm-EYFP, TRplp-fLUC and TRdm-fLUC mRNAs.
In this study, HEK293 cells transformed with the CMV-EYFP, TRplp-EYFP or TRdm-EYFP expression cassettes are directly visualized following translation of the spontaneously fluorescent EYFP protein. One day prior to toxin addition, 200,000 cells (HEK293, HEK293 CMV-EYFP, HEK293 TRplp-EYFP or HEK293 TRdm-EYFP) are plated into a six-well tray containing a flame sterilized glass slide. […] Slides were fixed for 10 min in 4% paraformaldehyde, washed extensively with 1×PBS and mounted for fluorescence microscopy.
Fluorescent cell counts are performed on the 6 hr and 10 hr timepoints using an EYFP-selective filter set (Nikon) and are shown in FIG. 7. In untreated cell cultures, the frequency of EYFP-positive cells range from 1.5-2.5%, which is consistent with the frequency of nonviable cells in these cultures, as determined by Trypan blue staining. […]

[2] = tested on: HEK293 TRplp-fLUC (subclone #3) and TRdm-fLUC (subclone #45) cells; experiment: Microplate reader dose response, lysed cell luciferase assay; details: 12 hr
Method: (§1) For this example, HEK293 cells expressing the TRplp-EYFP, TRdm-EYFP, TRplp fLUC and TRdm-fLUC expression cassettes are evaluated using a microplate reader. To quantitate the TR translational response, 24,000 cells are plated in a 96-well microtiter plates and allowed to grow for about 40 hr to achieve the proper cell density prior to incubation with a toxic agent. Each well is cultured with complete DMEM medium containing either no toxin or a defined concentration of toxin and incubated at 37 C for specific time periods. At that time, fluorescence or chemiluminescence on a FLUOstar Optima (BMG Labtech) microplate reader is used measure TR-ORF response.
(§2) For a lysed cell assay, cells are cultured as above, but in regular flat bottom 96-well trays. After toxin incubation, the 96-well plates are centrifuged as above. The media is removed, replaced with 50 microliters of Cell Lysis Buffer (25 mM Tris-phosphate (pH7.8), 10% glycerol, 1% TritonX-100, 1 mg/ml BSA, 2 mM EGTA and 2 mM DTT) and incubated for 10 min at RT. Cell lysis is verified using a phase contrast microscope, and the lysates transferred to a white bottom 96-well tray. Luminescence is developed by injection of 5 microliters of D-luciferin solution dissolved in Reaction Buffer (25 mM Glycylglycine (pH 7.8), 15 mM MgSO4, 4 mM EDTA, 15 mM Potassium phosphate, 1 mM DTT, 1 mM Coenzyme A, 6.7 mM ATP and 3.35 mM D-luciferin). After 4 sec with shaking, luminescence values were measured using the lens filter at gains of 2000-3000.
Dose response assays are necessary to define toxic concentrations of candidate cytotoxic agents. To establish a TR-mediated cellular response and identify a TR effective dose, HEK293 cells transformed with the TRplp-fLUC (subclone #3) and TRdm-fLUC (subclone #45) expression cassettes are subjected to a range of subtoxic to toxic concentrations of the calcium ionophore A23187 (0, 1 nM, 10 nM, 100 nM, 1 μM, 2 μM, 4 μM, 6 μM, 8 μM, 10 μM) for 12 hr and analyzed as described above using a lysed cell luciferase assay (FIG. 10).

[3] = tested on: HEK293 TRplp-fLUC subclone #3 and HEK293 TRdm-fLUC subclone #45; experiment: Microplate reader temporal response, lysed cell luciferase assay; details: 6.7 micromolar
Method: as §1, §2
Temporal response assays are used to define the timing of TR-regulated translation during incubation in toxic levels of a cytotoxic agent. HEK293 TRplp-fLUC subclone #3 and HEK293 TRdm-fLUC subclone #45 are cultured in 6.7 micromolar calcium ionophore A23187 for various times (0 hr, 1.5 hr, 3 hr, 4.5 hr, 6 hr, 7.5 hr, 9 hr, 10.5 hr, 12 hr and 13.5 hr) and analyzed as described above using a lysed cell luciferase assay (FIG. 11).

[4] = tested on: HEK293 cells transduced with rBAC TRplp-EYFP / TRdm-EYFP; experiment: TR-EYFP translation after rBAC transduction; details: 5 μM, 24 hr
Method: This example is to show delivery of the TRplp-EYFP and TRdm-EYFP cassettes to HEK293 cells using rBAC transduction. HEK293 cells are plated on flame sterilized glass slides and grown until 60-70% confluent (1-2 days), washed with serum-free DMEM, and infected with rBAC for 1-2 hr. The medium is replaced with DMEM, 10% FBS and the cells incubated for 24 hours. Infected cells were treated with DMEM, 10% FBS supplemented with 5 μM calcium ionophore A23187 for 24 hr prior to direct microscopic examination.

[5] = tested on: HT1080 cells transduced with rBAC-TRdm-EYFP virions; experiment: Cytotoxic event assay using rBAC-TRdm-EYFP gene delivery, fluorescence microscopy; details: 5 μM
Method: HT1080 cells are plated in 6-well trays and allowed to grow until 70-80% confluent. Two sets of HT1080 cells are transduced with rBAC-TRdm-EYFP virions (multiplicity of infection of 10 pfu/cell and 25 pfu/cell) for 24 hr and then treated with medium containing 5 μM calcium ionophore A23187 for 13.5 hr and 23 hr. At this time, untreated and treated cells are processed and examined by fluorescence microscopic analysis as described above.

For `CNc1ccc2oc(C[C@H]3O[C@@]4(CC[C@H]3C)O[C@H]([C@H](C)C(=O)c3ccc[nH]3)[C@H](C)C[C@H]4C)nc2c1C(=O)O` [calcium ionophore A23187], the “cell death in HEK293 cells as determined by Trypan blue staining” value (HEK293 cells) was “complete cell death”, the “change in the number of fluorescent cells” value ([1]; HEK293 or HEK CMV-EYFP cells) was “no significant change” and the “frequency of fluorescent cells, rise in % of untreated control cultures” value ([1]; TRplp-EYFP expressing cells, 6 hr and 10 hr) was 1000-2300%. The “fLuc activity at the 8-10 μM toxin concentrations” value ([2]; 8-10 μM) was “decline in fLuc activity”, the “concentration of peak in fLUC values” ([2]; raw luciferase numbers) was 6 µM and the “concentration at which TR-mediated translation is initially detected” value ([2]; raw luciferase numbers, each cassette) was 1 µM. For the same molecule, the “TR-specific translational activity at lower subtoxic doses” value ([2]; below 1 μM (1 nM, 10 nM, 100 nM)) was “no apparent TR-specific translational activity”, the “time up to which translational activity increases linearly, values adjusted to HEK293 CMV-fLUC cells” value ([3]; ratio to CMV-fLUC) was 12 h and the “time post-incubation by which significant TR-specific translation is detected” value ([3]; raw luciferase numbers) was at most 1.5 h. For the same molecule, the “time post-incubation up to which translational activity increases linearly, then plateau” value ([3]; raw luciferase numbers) was 9 h, the “translation of EYFP in rBAC transduced cells compared to uninfected control cells” value [4] was “exhibit selective translation of the fluorescent EYFP protein” and the “increase in EYFP positive cells compared to infected but untreated cell samples” value (from here on “increase in EYFP positive cells”) ([5]; 13.5 hr, 10 pfu/cell) was 3344%. For the same molecule, the “increase in EYFP positive cells” value ([5]; 13.5 hr, 25 pfu/cell) was 4925%, the “decrease in the number of attached cells” value ([5]; 23 hr) was “more than 50%” and the “increase in EYFP positive cells” value ([5]; 23 hr, 10 pfu/cell) was 725%. The “increase in EYFP positive cells” value ([5]; 23 hr, 25 pfu/cell) was 875%.
